How the values were obtained:
Experiment in all cases: relative viability (nuclei count vs DMSO), 5 days (fraction); higher = more cells survive
Pazopanib + Decitabine = compound: Cc1ccc(Nc2nccc(N(C)c3ccc4c(C)n(C)nc4c3)n2)cc1S(N)(=O)=O [Pazopanib] + Nc1ncn([C@H]2C[C@H](O)[C@@H](CO)O2)c(=O)n1 [Decitabine] (partner 2 µM)
Outline: (§1)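 After 5 days of treatment, lung cancer cells in 1536-well plates were fixed and stained in a single step (final 0.05% Triton X-100, 1% formaldehyde, 1 ug/ml Hoechst) and their nuclei counted on 4× images. Treatment had been applied by pin tool the day after seeding as one drug alone or as a fixed anchor-drug dose with five library-drug doses (not always all listed) in √10 steps. Relative viability is the nuclei count of treated wells divided by that of vehicle wells, and values are medians of duplicate plates.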

Ponatinib + Linsitinib = compound: Cc1ccc(C(=O)Nc2ccc(CN3CCN(C)CC3)c(C(F)(F)F)c2)cc1C#Cc1cnc2cccnn12 [Ponatinib] + C[C@]1(O)C[C@@H](c2nc(-c3ccc4ccc(-c5ccccc5)nc4c3)c3c(N)nccn32)C1 [Linsitinib] (partner 1 µM)
Outline: as §1

Ponatinib + Crizotinib = compound: Cc1ccc(C(=O)Nc2ccc(CN3CCN(C)CC3)c(C(F)(F)F)c2)cc1C#Cc1cnc2cccnn12 [Ponatinib] + C[C@@H](Oc1cc(-c2cnn(C3CCNCC3)c2)cnc1N)c1c(Cl)ccc(F)c1Cl [Crizotinib] (partner 1 µM)
Outline: as §1

Pazopanib + Palbociclib = compound: Cc1ccc(Nc2nccc(N(C)c3ccc4c(C)n(C)nc4c3)n2)cc1S(N)(=O)=O [Pazopanib] + CC(=O)c1c(C)c2cnc(Nc3ccc(N4CCNCC4)cn3)nc2n(C2CCCC2)c1=O [Palbociclib] (partner 0.5 µM)
Outline: as §1

Cell Line | relative viability (Pazopanib + Decitabine; first compound 0.01 µM) | relative viability (Pazopanib + Decitabine; first compound 0.03162 µM) | relative viability (Pazopanib + Decitabine; first compound 0.1 µM) | relative viability (Pazopanib + Decitabine; first compound 0.3162 µM) | relative viability (Pazopanib + Decitabine; first compound 1 µM) | relative viability (Ponatinib + Linsitinib; first compound 0.002 µM) | relative viability (Ponatinib + Linsitinib; first compound 0.006325 µM) | relative viability (Ponatinib + Linsitinib; first compound 0.06325 µM) | relative viability (Ponatinib + Linsitinib; first compound 0.2 µM) | relative viability (Ponatinib + Crizotinib; first compound 0.002 µM) | relative viability (Ponatinib + Crizotinib; first compound 0.006325 µM) | relative viability (Ponatinib + Crizotinib; first compound 0.06325 µM) | relative viability (Ponatinib + Crizotinib; first compound 0.2 µM) | relative viability (Pazopanib + Palbociclib; first compound 0.01 µM) | relative viability (Pazopanib + Palbociclib; first compound 0.03162 µM) | relative viability (Pazopanib + Palbociclib; first compound 0.1 µM) | relative viability (Pazopanib + Palbociclib; first compound 0.3162 µM) | relative viability (Pazopanib + Palbociclib; first compound 1 µM)
201T | 0.831 | 0.886 | 0.866 | 0.879 | 0.838 | 0.958 | 1.11 | 1.06 | 1.01 | 1.03 | 1.07 | 1.06 | 1.02 | 0.332 | 0.356 | 0.343 | 0.37 | 0.412
A549 |  | 0.276 | 0.281 | 0.273 | 0.332 | 0.612 | 0.632 | 0.688 | 0.591 | 0.625 | 0.743 | 0.682 | 0.702 |  |  |  |  | 
A-427 | 0.554 | 0.538 | 0.554 | 0.533 | 0.613 | 1.06 | 1.09 | 1.21 | 0.981 | 0.875 | 1.02 | 0.838 | 0.743 | 0.536 | 0.565 | 0.476 | 0.554 | 0.526
ABC-1 | 1.01 | 1.12 | 1 | 1.31 | 0.807 | 1.07 | 0.881 | 0.794 | 0.973 | 1.24 | 1.23 | 1.08 | 0.852 | 0.407 | 0.799 | 0.788 | 1.13 | 0.784
BEN | 0.579 | 0.791 | 0.726 | 0.831 | 0.782 | 0.858 | 0.985 | 0.846 | 0.87 | 0.838 | 0.824 | 0.804 | 0.794 | 0.447 | 0.467 | 0.498 | 0.506 | 0.482
CAL-12T |  |  |  |  |  | 0.791 | 0.773 | 1.12 | 0.899 | 0.774 | 0.653 | 0.756 | 0.614 | 0.487 | 0.687 | 0.348 | 0.486 | 0.577
COR-L23 | 0.457 | 0.43 | 0.442 | 0.459 | 0.49 | 0.9 | 0.826 | 0.889 | 0.741 | 0.525 | 0.588 | 0.619 | 0.568 | 0.297 | 0.323 | 0.353 | 0.316 | 0.317
COR-L 105 | 0.746 | 0.576 | 0.737 | 0.677 | 0.719 | 0.944 | 0.875 | 1.39 | 1.04 | 0.706 | 1.05 | 0.791 | 0.703 | 0.364 | 0.363 | 0.413 | 0.437 | 0.438
Calu-6 |  |  |  |  |  | 0.956 | 0.964 | 0.932 | 0.747 | 0.701 | 0.73 | 0.805 | 0.763 |  |  |  |  | 
ChaGo-K-1 | 0.541 | 0.482 | 0.516 | 0.528 | 0.535 |  |  |  |  | 1.12 | 1.16 | 1.08 | 0.95 | 0.949 | 0.927 | 0.973 | 0.927 | 0.873
EBC-1 |  |  |  |  |  | 0.857 | 0.983 | 0.985 | 0.927 | 0.179 | 0.214 | 0.208 | 0.192 |  |  |  |  | 
EKVX | 0.374 | 0.303 | 0.324 | 0.356 | 0.472 | 0.927 | 1.04 | 1.24 | 1.02 | 0.789 | 0.995 | 1.09 | 1.02 | 0.378 | 0.461 | 0.395 | 0.368 | 0.423
EMC-BAC-2 |  | 1.01 | 0.999 | 0.974 | 1.16 | 0.82 | 0.824 | 0.914 | 0.776 | 0.708 | 0.661 | 0.747 | 0.727 |  | 0.522 | 0.488 | 0.511 | 0.492
EPLC-272H |  | 0.336 | 0.353 | 0.337 | 0.369 | 1.06 | 1.24 | 1.31 | 0.801 | 0.787 | 0.753 | 0.886 | 0.811 |  | 0.366 | 0.304 | 0.334 | 0.409
H3255 | 0.42 | 0.618 | 0.602 | 0.718 | 0.668 | 0.849 | 0.951 | 1.06 | 0.885 | 0.861 | 0.916 | 0.951 | 0.727 | 0.314 | 0.315 | 0.349 | 0.328 | 0.361
HARA | 0.484 | 0.615 | 0.6 | 0.543 | 0.602 | 0.916 | 0.916 | 0.976 | 0.944 | 0.972 | 1.01 | 0.973 | 1.02 | 0.238 | 0.255 | 0.295 | 0.254 | 0.295
HCC-15 | 0.53 | 0.712 | 0.572 | 0.59 | 0.827 | 0.923 | 0.873 | 0.953 | 0.815 | 0.828 | 0.843 | 0.858 | 0.802 | 0.7 | 0.708 | 0.729 | 0.752 | 0.788
HCC-44 | 0.913 | 0.949 | 0.941 | 0.984 | 1 | 0.657 | 0.71 | 0.744 | 0.683 | 0.752 | 0.799 | 0.908 | 0.808 | 0.921 | 0.932 | 0.943 | 0.982 | 0.948
HCC-78 |  | 0.729 | 0.648 | 0.691 | 0.818 | 0.412 | 0.519 | 0.605 | 0.478 | 0.291 | 0.322 | 0.447 | 0.312 | 0.465 | 0.511 | 0.4 | 0.462 | 0.432
HCC-366 | 0.384 | 0.302 | 0.378 | 0.326 | 0.473 | 0.699 | 0.701 | 1.02 | 0.606 | 0.474 | 0.506 | 0.531 | 0.519 | 0.36 | 0.422 | 0.449 | 0.386 | 0.353
